Patent publication US9113629B2, “4-amino-6-(4-substituted-phenyl)-picolinates and 6-amino-2-(4-substituted-phenyl)-pyrimidine-4-carboxylates and their use as herbicides” (DOW AGROSCIENCES LLC, priority 2013, dated 2015)
Like-named read-outs stand apart in the source and are kept apart here.

Tests used:
[1] = system: Key Broadleaf Weed and Crop Species; assay: Post-emergent Test II herbicidal activity (Table 5); format: in vivo; details: post-emergence, 336 h, 14 days after application; for pest or weed control at 70 g/ha: application rate 70 g ai/ha; for pest or weed control at 140 g/ha: application rate 140 g ai/ha
In short: (§1)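 Greenhouse post-emergent assay: seedlings (first/second true leaf) in Metro-Mix 360 were sprayed at 187 L/ha at a top rate plus twofold dilutions down to 1/16×; solvent-blank controls were included. Percent visual injury was read at 14 d.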

[2] = system: Key Grass and Sedge Weeds as well as Grass Crops; assay: Post-emergent Test II herbicidal activity (Table 6); format: in vivo; details: post-emergence, 336 h; for pest or weed control at 70 g/ha: 70 g ai/ha; for pest or weed control at 140 g/ha: 140 g ai/ha
In short: as §1

[3] = ABUTH: velvetleaf (Abutilon theophrasti), read-out: Visual Growth Reduction (%) 14 Days After Application, ABUTH
[4] = AMARE: redroot pigweed (Amaranthus retroflexus), read-out: Visual Growth Reduction (%) 14 Days After Application, AMARE
[5] = BRSNN: oilseed-rape, canola (Brassica napus), read-out: Visual Growth Reduction (%) 14 Days After Application, BRSNN
[6] = CHEAL: lambsquarters (Chenopodium album), read-out: Visual Growth Reduction (%) 14 Days After Application, CHEAL
[7] = EPHHL: wild poinsettia (Euphorbia heterophylla), read-out: Visual Growth Reduction (%) 14 Days After Application, EPHHL
[8] = HELAN: sunflower (Helianthus annuus), read-out: Visual Growth Reduction (%) 14 Days After Application, HELAN
[9] = VIOTR: wild pansy (Viola tricolor), read-out: Visual Growth Reduction (%) 14 Days After Application, VIOTR
[10] = CYPES: yellow nutsedge (Cyperus esculentus), read-out: Visual Growth Reduction (%) 14 Days After Application, CYPES
[11] = DIGSA: crabgrass (Digitaria sanguinalis), read-out: Visual Growth Reduction (%) 14 Days After Application, DIGSA
[12] = ECHCG: barnyardgrass (Echinochloa crus-galli), read-out: Visual Growth Reduction (%) 14 Days After Application, ECHCG
[13] = ORYSA: rice (Oryza sativa), crop, read-out: Visual Growth Reduction (%) 14 Days After Application, ORYSA
[14] = SETFA: giant foxtail (Setaria faberi), read-out: Visual Growth Reduction (%) 14 Days After Application, SETFA
[15] = SORVU: grain sorghum (Sorghum vulgare), read-out: Visual Growth Reduction (%) 14 Days After Application, SORVU
[16] = TRZSS (wheat, Triticum aestivum), crop, read-out: Visual Growth Reduction (%) 14 Days After Application, TRZSS
[17] = ZEAMX: maize, corn (Zea mays), crop, read-out: Visual Growth Reduction (%) 14 Days After Application, ZEAMX

Q: Which results are given for `COC(=O)c1nc(-c2ccc(I)cc2)cc(N)c1Cl` [Compound 158]?
A: pest or weed control at 70 g/ha [1, 3]: 95 to 100%; pest or weed control at 140 g/ha [1, 3]: 95 to 100%; pest or weed control at 70 g/ha [1, 4]: 95 to 100%; pest or weed control at 140 g/ha [1, 4]: 95 to 100%; pest or weed control at 70 g/ha [1, 5]: 60 to 74%; pest or weed control at 140 g/ha [1, 5]: 75 to 84%; pest or weed control at 70 g/ha [1, 6]: 95 to 100%; pest or weed control at 140 g/ha [1, 6]: 95 to 100%; pest or weed control at 70 g/ha [1, 7]: 95 to 100%; pest or weed control at 140 g/ha [1, 7]: 95 to 100%; pest or weed control at 70 g/ha [1, 8]: 75 to 84%; pest or weed control at 140 g/ha [1, 8]: 75 to 84%; pest or weed control at 70 g/ha [1, 9]: 0 to 29%; pest or weed control at 140 g/ha [1, 9]: 0 to 29%; pest or weed control at 70 g/ha [2, 10]: 45 to 59%; pest or weed control at 140 g/ha [2, 10]: 45 to 59%; pest or weed control at 70 g/ha [2, 11]: 60 to 74%; pest or weed control at 140 g/ha [2, 11]: 60 to 74%; pest or weed control at 70 g/ha [2, 12]: 60 to 74%; pest or weed control at 140 g/ha [2, 12]: 75 to 84%; pest or weed control at 70 g/ha [2, 13]: 0 to 29%; pest or weed control at 140 g/ha [2, 13]: 0 to 29%; pest or weed control at 70 g/ha [2, 14]: 0 to 29%; pest or weed control at 140 g/ha [2, 14]: 0 to 29%; pest or weed control at 70 g/ha [2, 15]: 85 to 94%; pest or weed control at 140 g/ha [2, 15]: 85 to 94%; pest or weed control at 70 g/ha [2, 16]: 0 to 29%; pest or weed control at 140 g/ha [2, 16]: 45 to 59%; pest or weed control at 70 g/ha [2, 17]: 0 to 29%; pest or weed control at 140 g/ha [2, 17]: 0 to 29%
